One may read the GI50 as the concentration at which growth is held to half of that of the control.

This is an account of results in ChEMBL document CHEMBL1201862, “PubChem BioAssay data set” (2004).

Test systems include 786-0; A549; CAKI-1; COLO 205; HCT-15; Hs-578T; MDA-MB-231; Malme-3M; NCI-H226; NCI-H460; NCI-H522; OVCAR-4; OVCAR-5; SF-268; SF-295; SF-539; SK-MEL-2; SN12C; TK-10; UACC-62.
What all share (experiment): DTP human tumour cell line panel, 48 h

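Five concentrations, 48 hours, 96-well plates. Abbreviation: GI50, concentration required for 50% inhibition of growth.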 The source made the active and inactive calls. Cut-off read from the data, not from the text of the source: active = GI50 up to about 1.1 µM and inactive = higher.

In the case of `Cc1cc2oc(=O)c(Cl)c(Cl)c2c(C)c1Cl`, the GI50 was 3.15 µM (inactive) in the experiment on 786-0; 15.7 µM (inactive) in the experiment on A549; 4.74 µM (inactive) in the experiment on CAKI-1; 2.56 µM (inactive) in the experiment on COLO 205; 3.5 µM in the experiment on HCT-15; 2.59 µM (inactive) with Hs-578T. Also, the GI50 was 11 µM (inactive) in the experiment on MDA-MB-231; 10.8 µM (inactive) in the experiment with Malme-3M; 17.3 µM (inactive) with NCI-H226; 16.7 µM (inactive) in the experiment on NCI-H460; 14.3 µM (inactive) in the experiment on NCI-H522; 4.28 µM (inactive) in the experiment on OVCAR-4. Moreover, the GI50 with OVCAR-5 was 12.1 µM (inactive); with SF-268 it was 3.22 µM (inactive); in the experiment on SF-295, 14.4 µM (inactive); with SF-539, 9.35 µM (inactive); in the experiment on SK-MEL-2, 4.44 µM (inactive); in the experiment on SN12C, 11.5 µM (inactive). Besides, the GI50 in the experiment with TK-10 was 14.8 µM (inactive); in the experiment with UACC-62, 6.71 µM (inactive).
As to `N=C(N)SC(c1ccccc1)c1ccccc1`, the GI50 is 12.6 µM (inactive) with 786-0; 25.2 µM (inactive) with A549; 13.5 µM (inactive) in the experiment on CAKI-1; 21.8 µM (inactive) in the experiment with COLO 205; 16.4 µM in the experiment on HCT-15; 27.1 µM (inactive) with Hs-578T. Moreover, the GI50 was 15.2 µM (inactive) in the experiment with MDA-MB-231; 18.6 µM (inactive) in the experiment with Malme-3M; 33.8 µM (inactive) with NCI-H226; 16.6 µM (inactive) with NCI-H460; 13.2 µM (inactive) in the experiment with NCI-H522; 18.3 µM (inactive) in the experiment on OVCAR-4. Also, the GI50 was 14.2 µM (inactive) in the experiment with OVCAR-5; 22.6 µM (inactive) with SF-268; 16.9 µM (inactive) in the experiment on SF-295; 20.8 µM (inactive) in the experiment on SF-539; 15 µM (inactive) in the experiment on SK-MEL-2; 16 µM (inactive) in the experiment with SN12C. Also, the GI50 was 14.5 µM (inactive) in the experiment on TK-10 and 16 µM (inactive) in the experiment with UACC-62.
In the case of `O=c1c2cccnc2[nH]c2ccc3scnc3c12`, the GI50 was 5.58 µM (inactive) in the experiment with 786-0; 3.96 µM (inactive) in the experiment on A549; > 10 µM (inactive) in the experiment on CAKI-1; 5.12 µM (inactive) in the experiment on COLO 205; 4.92 µM in the experiment on HCT-15; > 10 µM (inactive) in the experiment with Hs-578T. In addition, the GI50 in the experiment with MDA-MB-231 is > 10 µM (inactive); with Malme-3M, > 10 µM (inactive); in the experiment with NCI-H226, 5.97 µM (inactive); in the experiment with NCI-H460, 7.01 µM (inactive); in the experiment on NCI-H522 it was > 10 µM (inactive); with OVCAR-4, 9.35 µM (inactive). Moreover, the GI50 with OVCAR-5 was > 10 µM (inactive); in the experiment on SF-268, > 10 µM (inactive); in the experiment on SF-295, > 10 µM (inactive); in the experiment on SF-539, 6.95 µM (inactive); with SK-MEL-2, > 10 µM (inactive); with SN12C, 6.24 µM (inactive). Further, the GI50 in the experiment with TK-10 is 4.86 µM (inactive); with UACC-62, > 10 µM (inactive).
Consider `O=C1CCC2c3ccccc3NCN12` (stereo not given), for which the GI50 in the experiment with 786-0 was > 100 µM (inactive); in the experiment with A549, > 100 µM (inactive); in the experiment on CAKI-1, > 100 µM (inactive); in the experiment with COLO 205, > 100 µM (inactive); with HCT-15 it was over 100 µM; in the experiment with Hs-578T, > 100 µM (inactive). Moreover, the GI50 in the experiment on MDA-MB-231, in the experiment with Malme-3M, with NCI-H226, in the experiment on NCI-H460, in the experiment on NCI-H522 and with OVCAR-4 was > 100 µM (inactive) throughout. Moreover, the GI50 with OVCAR-5, with SF-268, with SF-295, in the experiment with SF-539, in the experiment with SK-MEL-2 and in the experiment on SN12C was > 100 µM (inactive) throughout. Moreover, the GI50 with TK-10 and in the experiment with UACC-62 was > 100 µM (inactive) in each case.
As for `O=C1OCC(c2ccc(Cl)cc2)=C1Cl`, the GI50 in the experiment on 786-0 was 17.7 µM (inactive); in the experiment with A549, 35 µM (inactive); in the experiment on CAKI-1 it was 30.5 µM (inactive); in the experiment on COLO 205 it was 24.4 µM (inactive); in the experiment with HCT-15 it was 29.9 µM; in the experiment on Hs-578T, 45.8 µM (inactive). Also, the GI50 with MDA-MB-231 is 33.3 µM (inactive); in the experiment with Malme-3M, 15.6 µM (inactive); in the experiment on NCI-H226, 55.8 µM (inactive); in the experiment with NCI-H460 it was 17.8 µM (inactive); with NCI-H522 it was 18.5 µM (inactive); with OVCAR-4, 44.8 µM (inactive). Further, the GI50 with OVCAR-5 was 22.3 µM (inactive); in the experiment with SF-268 it was 21.1 µM (inactive); in the experiment on SF-295 it was 39.9 µM (inactive); in the experiment with SF-539, 38 µM (inactive); in the experiment on SK-MEL-2, 22.9 µM (inactive); with SN12C, 26.7 µM (inactive). Besides, the GI50 in the experiment with TK-10 is 28.3 µM (inactive); with UACC-62, 18.7 µM (inactive).
Regarding `N[C@H](C(=O)O)[C@@H]1CC(Br)=NO1`, the GI50 with 786-0 was 13 µM (inactive); in the experiment with A549 it was 3.66 µM (inactive); with CAKI-1, 18.4 µM (inactive); in the experiment with COLO 205, 33.3 µM (inactive); in the experiment on HCT-15 it was 6.38 µM; with Hs-578T, 8.95 µM (inactive). Moreover, the GI50 with MDA-MB-231 was > 100 µM (inactive); with Malme-3M, > 25.1 µM (inactive); in the experiment with NCI-H226, > 96.6 µM (inactive); with NCI-H460, 4.31 µM (inactive); with NCI-H522, > 32 µM (inactive); in the experiment on OVCAR-4, 21.9 µM (inactive). The GI50 with OVCAR-5 was 16.8 µM (inactive); in the experiment on SF-268, 11.6 µM (inactive); with SF-295, 6.28 µM (inactive); in the experiment with SF-539, 5.21 µM (inactive); in the experiment on SK-MEL-2 it was > 91.8 µM (inactive); in the experiment on SN12C it was 38.3 µM (inactive). Also, the GI50 was 16 µM (inactive) in the experiment on TK-10 and 27.7 µM (inactive) in the experiment with UACC-62.
In the case of `O=C1C2CCCCC2C(=O)N1n1c(Cc2ccccc2)n[nH]c1=O` (stereo not given), the GI50 was > 100 µM (inactive) with 786-0; > 100 µM (inactive) in the experiment with A549; > 100 µM (inactive) with CAKI-1; > 100 µM (inactive) in the experiment on COLO 205; over 100 µM with HCT-15; > 100 µM (inactive) in the experiment with Hs-578T. In addition, the GI50 in the experiment on MDA-MB-231, in the experiment on Malme-3M, in the experiment with NCI-H226, in the experiment on NCI-H460, in the experiment with NCI-H522 and with OVCAR-4 was > 100 µM (inactive) each time. In addition, the GI50 with OVCAR-5, in the experiment with SF-268, with SF-295, in the experiment with SF-539, with SK-MEL-2 and in the experiment with SN12C was > 100 µM (inactive) throughout. For the same molecule, the GI50 in the experiment on TK-10 and in the experiment with UACC-62 was > 100 µM (inactive) throughout.
Take `O=C1Cc2c(-c3cccs3)cc(-c3ccccc3)nc2-c2ccccc2N1`: the GI50 in the experiment on 786-0 was 21.9 µM (inactive); in the experiment on A549 it was 93.1 µM (inactive); with CAKI-1, 21.6 µM (inactive); in the experiment with COLO 205 it was 43.4 µM (inactive); in the experiment on HCT-15, 40.1 µM; in the experiment with Hs-578T, 2.14 µM (inactive). The GI50 is 9.48 µM (inactive) with MDA-MB-231; 9.95 µM (inactive) with Malme-3M; 81.8 µM (inactive) in the experiment with NCI-H226; 24 µM (inactive) in the experiment on NCI-H460; 27.8 µM (inactive) with NCI-H522; 0.855 µM (active) in the experiment on OVCAR-4. The GI50 was > 100 µM (inactive) in the experiment with OVCAR-5; 10.8 µM (inactive) with SF-268; 47.4 µM (inactive) with SF-295; 22.7 µM (inactive) in the experiment with SF-539; 86.3 µM (inactive) in the experiment on SK-MEL-2; 67.5 µM (inactive) in the experiment on SN12C. For the same molecule, the GI50 with TK-10 and in the experiment on UACC-62 was > 100 µM (inactive) throughout.
